Results reported in ChEMBL document CHEMBL1938362, “Synthesis and properties of molecular probes for the rescue site on mutant cystic fibrosis transmembrane conductance regulator” (J Med Chem, 2011).

Key:
BHK = test: Modulation of CFTR F508 deletion mutant expressed in BHK cells assessed as increase in forskolin-stimulated iodine influx at 10 uM after 5 mins […] (reference value: 1.4 +/- 0.4 nM/s); format: cell-based
[1] = tested on: Cystic fibrosis transmembrane conductance regulator (Homo sapiens), P13569 [G551D]; test: Modulation of C-terminal His10-tagged CFTR G551D mutant in liposomes of egg phosphatidylcholine assessed as increase in iodine influx at 10 uM after 5 mins […] in presence of protein kinase A and valinomycin relative to control
Sequence of Cystic fibrosis transmembrane conductance regulator (Homo sapiens), P13569 [G551D] (P13569 whole entry G551D): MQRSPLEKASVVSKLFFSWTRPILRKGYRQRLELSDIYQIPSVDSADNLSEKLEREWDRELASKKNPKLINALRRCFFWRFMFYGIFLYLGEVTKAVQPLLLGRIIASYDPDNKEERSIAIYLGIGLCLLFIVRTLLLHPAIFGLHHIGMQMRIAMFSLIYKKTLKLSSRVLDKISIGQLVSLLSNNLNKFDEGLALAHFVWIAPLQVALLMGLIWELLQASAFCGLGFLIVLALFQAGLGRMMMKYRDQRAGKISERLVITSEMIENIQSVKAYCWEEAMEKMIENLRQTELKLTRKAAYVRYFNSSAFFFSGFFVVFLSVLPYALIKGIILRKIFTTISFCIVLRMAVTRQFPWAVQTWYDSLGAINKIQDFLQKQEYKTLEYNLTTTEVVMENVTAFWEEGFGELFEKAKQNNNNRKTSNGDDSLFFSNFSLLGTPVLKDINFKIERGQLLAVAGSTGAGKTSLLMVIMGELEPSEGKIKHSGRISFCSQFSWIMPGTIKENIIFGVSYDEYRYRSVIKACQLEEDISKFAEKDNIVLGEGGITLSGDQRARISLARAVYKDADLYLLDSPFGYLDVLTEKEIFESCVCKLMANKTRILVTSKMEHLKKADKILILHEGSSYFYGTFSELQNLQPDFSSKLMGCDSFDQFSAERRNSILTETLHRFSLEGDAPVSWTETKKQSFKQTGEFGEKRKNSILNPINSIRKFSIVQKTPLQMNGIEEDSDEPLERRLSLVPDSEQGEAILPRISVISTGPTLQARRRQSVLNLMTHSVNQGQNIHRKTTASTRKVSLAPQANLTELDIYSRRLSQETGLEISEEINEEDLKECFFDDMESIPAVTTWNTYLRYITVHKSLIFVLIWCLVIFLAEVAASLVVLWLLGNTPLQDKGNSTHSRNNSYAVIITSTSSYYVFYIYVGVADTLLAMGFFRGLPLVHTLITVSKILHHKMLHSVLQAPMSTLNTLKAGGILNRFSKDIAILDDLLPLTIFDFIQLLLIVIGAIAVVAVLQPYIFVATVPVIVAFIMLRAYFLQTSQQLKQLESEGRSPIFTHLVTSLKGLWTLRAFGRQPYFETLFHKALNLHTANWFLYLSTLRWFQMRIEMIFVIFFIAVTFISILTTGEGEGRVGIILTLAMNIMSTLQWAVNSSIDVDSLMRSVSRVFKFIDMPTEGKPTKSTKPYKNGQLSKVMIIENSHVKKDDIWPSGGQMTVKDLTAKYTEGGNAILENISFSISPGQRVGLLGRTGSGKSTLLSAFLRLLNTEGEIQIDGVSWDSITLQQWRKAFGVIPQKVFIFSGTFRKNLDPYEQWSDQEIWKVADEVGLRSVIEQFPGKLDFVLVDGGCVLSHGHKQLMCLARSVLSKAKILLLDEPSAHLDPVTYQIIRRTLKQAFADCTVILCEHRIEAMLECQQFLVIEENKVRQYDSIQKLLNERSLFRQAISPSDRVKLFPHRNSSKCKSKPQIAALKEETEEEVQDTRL

SMILES	Activity (BHK)	Activity [1]
Cc1ccc(O)c(-c2cc(-c3ccc(I)cc3)[nH]n2)c1	5.1 nM/s	–
Cc1ccc(O)c(-c2cc(-c3ccc([N+](=O)[O-])cc3)[nH]n2)c1	5.1 nM/s	–
Cc1ccc(O)c(-c2cc(-c3ccc(N=[N+]=[N-])cc3)[nH]n2)c1	5.1 nM/s	–
Cc1ccc(O)c(-c2cc(-c3ccccc3)[nH]n2)c1	9.9 nM/s	16.9 nM/s
Cc1ccc(O)c(-c2cc(-c3ccc(C#CCNS(=O)(=O)c4cccc5c(N(C)C)cccc45)cc3)[nH]n2)c1	1.7 nM/s	11.2 nM/s
Cc1ccc(O)c(-c2cc(-c3ccc(N)cc3)[nH]n2)c1	5.1 nM/s	–
